{"source": "patent US20140242200A1", "about": "“WATER-SOLUBLE EXTRACTS OF ARTEMISIA DRACUNCULUS (TARRAGON) FOR IMPROVEMENT OF GLUCOSE METABOLISM” (Finzelberg GmbH & Co. KG, priority 2008, published 2014)", "key": {"[1]": {"test_system": "Male non-fasted Wistar rats", "assay": "Basal blood glucose levels in rats (no glucose challenge)", "format": "in vivo", "details": "oral treatment, extracts 6 mg/kg, blood samples 0-180 min, one-way ANOVA, Student-Newman-Keuls", "description": "(§1) A common way of testing for an effect of extracts or new chemical entities on blood glucose levels is the glucose challenge test (Verspohl, E. J.: Recommended testing in diabetes research. Planta Med 68 (7): 581-90, 2002) in which rats are given the extract, control, or a known antidiabetic substance with (challenge) and without (basal) an intraperitoneal (i.p.) dose of glucose. The extracts are given orally 30 min. before the glucose challenge. Blood samples are taken sublingual at time points 0, 15, 30, 60, and 120 minutes for the glucose challenge or 0, 30, 60, 120, and 180 minutes for basal blood glucose levels. This sampling scheme ensures to monitor both effects of extracts on basal blood glucose levels over a longer time period and the blood glucose levels after glucose challenge closely enough. […]\n(§2) Blood was drawn at the appropriate time points from the sublingual vein after a short halothane anesthesia and stored at 4° C. with addition of heparin. […] The supernatant plasma was taken and analyzed using an autoanalyzer (Merck, Darmstadt). […]\n(§3) Both percent and AUC data were analyzed by one-way ANOVA and Student-Newman-Keuls Multiple Comparison Test using Graphpad 4.0 Software, San Diego, USA. The AUC (area under the curve) was calculated using the trapezoidal rule without extensions beyond the last time point measured."}, "[2]": {"test_system": "Male non-fasted Wistar rats", "assay": "Glucose challenge test (i.p. glucose) in rats", "format": "in vivo", "details": "oral treatment 30 min before i.p. glucose; extracts 6 mg/kg; blood samples 0-120 min; one-way ANOVA, Student-Newman-Keuls", "description": "as §1, §2, §3"}}, "data": [{"smiles": "COc1ccc(Cl)cc1C(=O)NCCc1ccc(S(=O)(=O)NC(=O)NC2CCCCC2)cc1", "note": "[glyburide]", "values": [{"measurement": "effect on basal blood glucose levels", "setting": "[1]", "result": "significant effect"}, {"measurement": "effect on lowering the blood glucose levels following the i.p. glucose challenge", "setting": "[2]", "result": "significant effect"}]}, {"smiles": "N[C@@H](CC(=O)N1CCn2c(nnc2C(F)(F)F)C1)Cc1cc(F)c(F)cc1F", "note": "[sitagliptin]", "values": [{"measurement": "effect on basal blood glucose levels", "setting": "[1]", "result": "significant effect"}, {"measurement": "effect on lowering the blood glucose levels following the i.p. glucose challenge", "setting": "[2]", "result": "significant effect"}]}]}
